Data as given in ChEMBL document CHEMBL4808204, “Discovery of non-proteinogenic amino acids inhibiting biofilm formation by S. aureus and methicillin-resistant S. aureus” (Bioorg Med Chem Lett, 2021).
Activity calls are given as the source filed them. The calls are words filed in the database; no cut-off is given here.

Columns and labels:
Staphylococcus aureus [1] = test: Antibiofilm activity against Staphylococcus aureus assessed as inhibition of biofilm formation at 66 uM; assay type: functional
Pseudomonas aeruginosa [2] = test: Antibiofilm activity against Pseudomonas aeruginosa assessed as inhibition of biofilm formation at 100 uM; assay type: functional
Staphylococcus aureus [3] = test: Antibacterial activity in Staphylococcus aureus assessed as bacterial growth rate at 100 uM measured by UV absorbance based analysis; assay type: functional
Staphylococcus aureus [4] = test: Antibiofilm activity against Staphylococcus aureus assessed as biofilm formation at 100 uM measured by crystal violet staining based microplate reader assay; assay type: functional
Staphylococcus aureus [5] = test: Antibiofilm activity against Staphylococcus aureus assessed as inhibition of biofilm formation at 10 uM measured by crystal violet staining based microplate reader assay; assay type: functional
Staphylococcus aureus [6] = test: Antibiofilm activity against methicillin-resistant Staphylococcus aureus assessed as inhibition of biofilm formation by UV absorbance based analysis; assay type: functional, organism-based; settings: dose 1-100 µM
Pseudomonas aeruginosa [7] = test: Antibiofilm activity against Pseudomonas aeruginosa assessed as inhibition of biofilm formation at 1 to 100 uM by UV absorbance based analysis; assay type: functional, organism-based; settings: dose 1-100 µM
Streptococcus mutans = test: Antibiofilm activity against Streptococcus mutans assessed as inhibition of biofilm formation at 1 to 100 uM by UV absorbance based analysis; assay type: functional, organism-based; settings: dose 1-100 µM
Staphylococcus aureus [8] = test: Antibiofilm activity against Staphylococcus aureus assessed as inhibition of attachment of biofilm on the bacterial surface at 1 to 100 uM; assay type: functional, organism-based; settings: dose 1-100 µM
Listeria monocytogenes = test: Antibiofilm activity against Listeria monocytogenes assessed as inhibition of biofilm formation by UV absorbance based analysis; assay type: functional, organism-based; settings: dose 1-100 µM
Acinetobacter baumannii = test: Antibiofilm activity against Acinetobacter baumannii assessed as inhibition of biofilm formation at 1 to 100 uM by UV absorbance based analysis; assay type: functional, organism-based; settings: dose 1-100 µM
Pseudomonas aeruginosa [9] = test: Antibiofilm activity against Pseudomonas aeruginosa assessed as inhibition of biofilm formation at 100 uM measured by crystal violet staining based microplate reader assay; assay type: functional, organism-based
Staphylococcus aureus [10] = test: Antibiofilm activity against Staphylococcus aureus assessed as inhibition of biofilm formation by UV absorbance based analysis; assay type: functional, organism-based; settings: dose 1-100 µM
HeLa = test: Cytotoxicity against human HeLa cells at 1 to 100 uM by WST8 assay; assay type: cell-based; settings: dose 1-100 µM
Escherichia coli = test: Antibiofilm activity against Escherichia coli assessed as inhibition of biofilm formation at 1 to 100 uM by UV absorbance based analysis; assay type: functional, organism-based; settings: dose 1-100 µM
[11] = test system: Staphylococcus epidermidis; test: Antibiofilm activity against Staphylococcus epidermidis assessed as inhibition of biofilm formation at 1 to 100 uM by UV absorbance based analysis; assay type: functional, organism-based; settings: dose 1-100 µM
Staphylococcus aureus [12] = test: Antibiofilm activity against Staphylococcus aureus assessed as inhibition of biofilm formation at 500 uM; assay type: functional
Staphylococcus aureus [13] = test: Antibiofilm activity against Staphylococcus aureus assessed as inhibition of biofilm formation at 100 uM; assay type: functional
Staphylococcus aureus [14] = test: Antibiofilm activity against Staphylococcus aureus assessed as inhibition of biofilm formation at 60 uM; assay type: functional

SMILES | Activity (Staphylococcus aureus [3]) [%] | Biofilm formation (Staphylococcus aureus [4]) [%] | other results
O=c1c(O)c(-c2ccc(O)c(O)c2)oc2cc(O)cc(O)c12 [QUERCETIN] |  |  | inhibition at 66 µM (Staphylococcus aureus [1]): > 70%; inhibition at 100 µM (Pseudomonas aeruginosa [2]): > 70%
CCCCCCCCCCCCCC(=O)NCC(=O)O | 38 | 4 | 
OCc1ccc(O)c(O)c1 | 104 | 107 | 
NCCc1ccc(O)c(O)c1 [DOPAMINE] | 98 |  | Activity (Staphylococcus aureus [4]): 79%
N[C@@H](Cc1ccc(O)c(O)c1)C(=O)O [LEVODOPA] | 84 | 32 | 
NC(C(=O)O)C(O)c1ccc(O)c(O)c1 (configuration not stated) | 104 | 12 | inhibition at 10 µM (Staphylococcus aureus [5]): 53%; Activity (Staphylococcus aureus [6]): Dose-Dependent Effect; Activity (Pseudomonas aeruginosa [7]): inactive; Activity (Streptococcus mutans): inactive; Activity (Staphylococcus aureus [8]): inactive; Activity (Listeria monocytogenes): Dose-Dependent Effect; Activity (Acinetobacter baumannii): inactive; Activity (Pseudomonas aeruginosa [9]): inactive; Activity (Staphylococcus aureus [10]): Dose-Dependent Effect; Activity (HeLa): Non-Toxic; Activity (Escherichia coli): inactive; Activity [11]: inactive
O=C(O)[C@H]1CCCN1 [D-PROLINE] |  |  | inhibition at 500 µM (Staphylococcus aureus [12]): > 70%
N[C@@H](Cc1ccc(F)c(F)c1)C(=O)O | 145 | 31 | 
N[C@H](CO)C(=O)O [(D)-SERINE] | 85 | 83 | 
CNC[C@H](O)c1ccc(O)c(O)c1 [EPINEPHRINE] | 79 |  | Activity (Staphylococcus aureus [4]): 77%
N[C@H](Cc1ccc(O)cc1)C(=O)O | 119 | 85 | inhibition at 100 µM (Staphylococcus aureus [13]): > 70%
N[C@@H](Cc1ccc(Cl)c(Cl)c1)C(=O)O | 117 | 46 | 
NC(Cc1cc(Br)c(O)c(Br)c1)C(=O)O (configuration not stated) | 72 | 6 | 
NC(C(=O)O)C(O)c1ccccc1 (configuration not stated) | 97 | 101 | 
N[C@H](Cc1ccccc1)C(=O)O [D-PHENYLALANINE] |  |  | inhibition at 500 µM (Staphylococcus aureus [12]): > 70%
CC(C)c1ccc2c(c1)CC[C@H]1[C@](C)(C(=O)O)CCC[C@]21C [DEHYDROABIETIC ACID] |  |  | inhibition at 60 µM (Staphylococcus aureus [14]): 90%
NC(Cc1cc(I)c(O)c(I)c1)C(=O)O (configuration not stated) | 26 | 5 | 
NC(Cc1ccc(Oc2ccc(O)cc2)cc1)C(=O)O (configuration not stated) | 106 | 15 | 
NC(Cc1cc(I)c(Oc2ccc(O)c(I)c2)c(I)c1)C(=O)[O-].[Na+] (configuration not stated) | 18 | 2 | 
Oc1ccccc1O [CATECHOL] | 106 | 84 | 
N[C@@H](Cc1ccc(O)c([N+](=O)[O-])c1)C(=O)O | 80 | 16 | 
